From ChEMBL document CHEMBL1147827, “A pyrimidine-pyrazolone nucleoside chimera with potent in vitro anti-orthopoxvirus activity” (Bioorg Med Chem Lett, 2006)

Test system: Vaccinia virus
Assay: Antiviral activity against Vaccinia virus Copenhagen in HFF cells assessed as reduction in cytopathogenicity
Format: functional, organism-based
Conditions: Orthopoxvirus vaccinia

How did the EC50 turn out when `CC(=O)OC[C@H]1O[C@@H](n2cc(/C=C3\C(=O)N(c4ccccc4)N=C3C)c(=O)[nH]c2=O)C[C@@H]1OC(C)=O` was run?
The EC50 was 32 µM.
